Values of other authors in patent publication US20040054006A1 (priority 1999, published 2004).

Tests used:
[1] = 1% dietary cyclocreatine
creatine kinase = conditions: forward reaction, both in vitro and in vivo
[2] = fed to mice, rats and chicks
[3] = newly hatched chicks, diet containing 1% cyclocreatine
[4] = mice, up to 1% of diet for 2 weeks or for over 4 weeks
[5] = feeding animals cyclocreatine, e.g. 1% dietary
[6] = rats, dietary 1% cyclocreatine
[7] = intravenous injection, up to 8 grams/day, patients with cardiac diseases

Molecule | antiviral activity [1] | phosphorylation by creatine kinase (creatine kinase) | tolerability [2] | growth versus control chicks [3] | mortality ([3]; in the presence of antibiotics) | gross adverse effects [4] | accumulation in different organs [5] | tissue uptake [6] | adverse side effects [7]
NC1=NCCN1CC(=O)O [cyclocreatine, 1-carboxymethyl-2-iminoimidazolidine] | antiviral activity of cyclocreatine is observed | phosphorylated efficiently | well-tolerated | grew more slowly than control chicks | without significant mortality | without gross adverse effects | accumulation of cyclocreatine in different organs in mM concentrations | taken up by muscle, heart and brain | 
N-phosphoryl creatine [Creatine phosphate] |  |  |  |  |  |  |  |  | no adverse side effects
